Reference: ChEMBL document CHEMBL1126981, “Resistance of the 2,2,2-trifluoroethoxy aryl moiety to the cytochrome P-450 metabolism in rat liver microsomes” (Bioorg Med Chem Lett, 1993)

Species: Rattus norvegicus
Experiment: Inhibition of deethylase activity upon incubation with liver microsomes from phenobarbital induced rats
Format: functional

IC50 [µM]	Structure (SMILES)
100	CC(=O)Nc1ccc(OCC(F)(F)F)cc1
230	O=c1ccc2ccc(OCC(F)(F)F)cc2o1
